Laboratory results as given in patent US10131659B2, “Iodonium analogs as inhibitors of NADPH oxidases and other flavin dehydrogenases; formulations thereof; and uses thereof” (priority 2014, dated 2018).
Read-outs that look alike come from different tables or passages of the source.

How the values were obtained:
Type in all cases: cell-based
[1] = biological target: T1, NOX5 (Homo sapiens, UniProt Q96PH1); assay: NOX5-dependent ROS production, luminescence assay for O2.- in UACC257 melanoma cells; conditions: exposure for 30 min
T1 sequence (Q96PH1 1-765): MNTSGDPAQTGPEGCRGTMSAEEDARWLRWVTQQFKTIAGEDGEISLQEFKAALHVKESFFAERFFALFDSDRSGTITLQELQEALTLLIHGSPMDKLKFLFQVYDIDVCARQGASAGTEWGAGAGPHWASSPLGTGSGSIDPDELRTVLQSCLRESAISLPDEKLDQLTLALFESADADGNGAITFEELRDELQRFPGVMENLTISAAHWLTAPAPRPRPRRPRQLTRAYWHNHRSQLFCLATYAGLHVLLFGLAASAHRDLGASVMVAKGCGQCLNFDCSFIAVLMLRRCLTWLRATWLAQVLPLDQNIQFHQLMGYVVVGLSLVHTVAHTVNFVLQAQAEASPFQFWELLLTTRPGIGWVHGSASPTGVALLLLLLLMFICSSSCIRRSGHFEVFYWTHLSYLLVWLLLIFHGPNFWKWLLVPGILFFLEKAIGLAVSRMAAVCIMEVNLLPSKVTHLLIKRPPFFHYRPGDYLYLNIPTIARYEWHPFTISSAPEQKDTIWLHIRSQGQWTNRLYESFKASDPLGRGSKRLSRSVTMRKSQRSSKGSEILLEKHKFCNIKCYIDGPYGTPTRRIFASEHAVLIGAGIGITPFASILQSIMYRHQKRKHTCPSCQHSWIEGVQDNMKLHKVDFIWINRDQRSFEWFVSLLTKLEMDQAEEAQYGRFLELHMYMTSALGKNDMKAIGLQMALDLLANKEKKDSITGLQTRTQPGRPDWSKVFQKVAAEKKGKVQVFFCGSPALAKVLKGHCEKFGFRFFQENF

[2] = biological target: T2, NOX4 (Homo sapiens, UniProt Q9NPH5); assay: NOX4-dependent H2O2 production, Amplex Red assay in reconstituted HEK293 cells; conditions: for IC50 / IC50 toward NOX4: exposure for 30 min
T2 construct: expressed in transfected cells; host or cells: HEK293
T2 sequence (Q9NPH5 1-578): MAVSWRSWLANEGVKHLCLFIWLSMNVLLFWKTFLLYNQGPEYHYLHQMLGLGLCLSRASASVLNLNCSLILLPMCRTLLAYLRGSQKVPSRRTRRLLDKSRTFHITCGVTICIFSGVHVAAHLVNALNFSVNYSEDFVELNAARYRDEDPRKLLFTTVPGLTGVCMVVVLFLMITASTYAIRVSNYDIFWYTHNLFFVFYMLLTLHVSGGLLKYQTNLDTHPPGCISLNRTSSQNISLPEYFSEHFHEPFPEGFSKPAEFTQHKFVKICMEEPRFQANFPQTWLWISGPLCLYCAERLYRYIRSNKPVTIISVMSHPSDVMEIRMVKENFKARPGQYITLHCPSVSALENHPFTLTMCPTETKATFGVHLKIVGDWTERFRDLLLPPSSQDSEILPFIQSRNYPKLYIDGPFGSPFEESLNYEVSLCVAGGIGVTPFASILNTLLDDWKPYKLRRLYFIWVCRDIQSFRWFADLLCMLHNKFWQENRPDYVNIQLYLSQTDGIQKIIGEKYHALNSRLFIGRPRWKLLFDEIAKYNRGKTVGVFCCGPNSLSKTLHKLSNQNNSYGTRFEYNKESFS
T2 sequence (P13498 2-195 partner limits assumed): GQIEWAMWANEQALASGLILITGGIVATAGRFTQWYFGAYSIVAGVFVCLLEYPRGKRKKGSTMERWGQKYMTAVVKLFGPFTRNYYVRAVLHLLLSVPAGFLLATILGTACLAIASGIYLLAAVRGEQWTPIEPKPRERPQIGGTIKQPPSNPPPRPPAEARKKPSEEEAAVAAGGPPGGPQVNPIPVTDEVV
Procedure: (§1) H2O2 was measured by Amplex Red assay to determine NOX4 or Duox2 activity in fully reconstituted HEK293 cells. The method conducted was similar to the approach disclosed in Jaquet et al in Brit J. Pharmacology 164: 507-520, 2011 using somewhat different cell models for the NOX isoforms and we studied Duox2 in our own cell model.

[3] = tested on: HT-29 human colon cancer cells; assay: Clonogenic assay, HT-29 cells
Procedure: Several iodonium analog compounds were analyzed for inhibition of HT-29 growth using a clonogenic assay performed as described in Doroshow et al Biochem. Biophys. Res. Commun. 135: 330-335, 1986.

[4] = biological target: T3, NOX1/A1/O1 (Homo sapiens, UniProt Q9Y5S8); assay: NOX1-dependent ROS production, luminescence assay for O2.- in HEK293 cells expressing the NOX1 complex; conditions: for IC50 / IC50 toward NOX1: exposure for 30 min
T3 construct: expressed in transfected cells; host or cells: HEK293

[5] = biological target: T4, NOX2 (Homo sapiens, UniProt P04839); assay: NOX2-dependent ROS production, luminescence assay for O2.- in differentiated HL-60 cells; conditions: exposure for 30 min
T4 construct: fully differentiated HL-60 cells expressing active NOX2; endogenous in cells; host or cells: differentiated HL-60

[6] = tested on: HT-29 human colon cancer cells; assay: HT-29 cell cycle progression; conditions: for G1 (%) / G2 (%) / S phase (%): 24 hours
Procedure: Several iodonium analog compounds were analyzed for effect on HT-29 cell cycle progression.

[7] = biological target: DUOX2/A2 (Homo sapiens, UniProt Q9NRD8); assay: DUOX2-dependent H2O2 production, Amplex Red assay in reconstituted HEK293 cells
Procedure: as §1

[8] = tested on: HT-29 human colon cancer cells; assay: Growth inhibition of HT-29 cells by MTT assay; conditions: for IC50: read-out: IC50, HT-29 human colon cancer cell growth
Procedure: The compounds were analyzed for growth inhibition of HT-29 human colon cancer cells by MTT assay: 48 hr, drug exposures over several orders of concentration. The MTT assay was performed as described in Wu et al J. Immunology 190: 1859-1872, 2013.

[9] = tested on: ROS production in HT-29 human colon cancer cells; assay: ROS production in HT-29 cells (chemiluminescence / DCF analytical cytometry)
[10] = tested on: NOX1 mRNA expression; assay: NOX1 expression in HT-29 cells by quantitative RT-PCR; conditions: HT-29 human colon cancer cells
[11] = 3-5 independent experiments, read-out: IC50 ± SE, NOX5 UACC-257
[12] = 3-5 independent experiments, read-out: IC50 ± SE, NOX4 HEK293
[13] = Homo sapiens, HT-29, 6 h, read-out: IC50 (±SE) clonogenic survival, 6 hrs drug exposure, 6 hrs exposure
[14] = 3-5 independent experiments, read-out: IC50 ± SE, NOX1/A1/O1 HEK 293
[15] = 3-5 independent experiments, read-out: IC50 ± SE, NOX2 HL-60
[16] = 3-5 independent experiments, read-out: IC50 ± SE, DUOX2/A2 HEK 293
[17] = Homo sapiens, HT-29, 2 h, read-out: IC50 (±SE) clonogenic survival, 2 hrs drug exposure, 2 hrs exposure
[18] = Homo sapiens, HT-29, 240 h, read-out: IC50 clonogenic survival, 10 days drug exposure, 10 days exposure

DUOX2/A2, sequence (Q9NRD8 26-1548): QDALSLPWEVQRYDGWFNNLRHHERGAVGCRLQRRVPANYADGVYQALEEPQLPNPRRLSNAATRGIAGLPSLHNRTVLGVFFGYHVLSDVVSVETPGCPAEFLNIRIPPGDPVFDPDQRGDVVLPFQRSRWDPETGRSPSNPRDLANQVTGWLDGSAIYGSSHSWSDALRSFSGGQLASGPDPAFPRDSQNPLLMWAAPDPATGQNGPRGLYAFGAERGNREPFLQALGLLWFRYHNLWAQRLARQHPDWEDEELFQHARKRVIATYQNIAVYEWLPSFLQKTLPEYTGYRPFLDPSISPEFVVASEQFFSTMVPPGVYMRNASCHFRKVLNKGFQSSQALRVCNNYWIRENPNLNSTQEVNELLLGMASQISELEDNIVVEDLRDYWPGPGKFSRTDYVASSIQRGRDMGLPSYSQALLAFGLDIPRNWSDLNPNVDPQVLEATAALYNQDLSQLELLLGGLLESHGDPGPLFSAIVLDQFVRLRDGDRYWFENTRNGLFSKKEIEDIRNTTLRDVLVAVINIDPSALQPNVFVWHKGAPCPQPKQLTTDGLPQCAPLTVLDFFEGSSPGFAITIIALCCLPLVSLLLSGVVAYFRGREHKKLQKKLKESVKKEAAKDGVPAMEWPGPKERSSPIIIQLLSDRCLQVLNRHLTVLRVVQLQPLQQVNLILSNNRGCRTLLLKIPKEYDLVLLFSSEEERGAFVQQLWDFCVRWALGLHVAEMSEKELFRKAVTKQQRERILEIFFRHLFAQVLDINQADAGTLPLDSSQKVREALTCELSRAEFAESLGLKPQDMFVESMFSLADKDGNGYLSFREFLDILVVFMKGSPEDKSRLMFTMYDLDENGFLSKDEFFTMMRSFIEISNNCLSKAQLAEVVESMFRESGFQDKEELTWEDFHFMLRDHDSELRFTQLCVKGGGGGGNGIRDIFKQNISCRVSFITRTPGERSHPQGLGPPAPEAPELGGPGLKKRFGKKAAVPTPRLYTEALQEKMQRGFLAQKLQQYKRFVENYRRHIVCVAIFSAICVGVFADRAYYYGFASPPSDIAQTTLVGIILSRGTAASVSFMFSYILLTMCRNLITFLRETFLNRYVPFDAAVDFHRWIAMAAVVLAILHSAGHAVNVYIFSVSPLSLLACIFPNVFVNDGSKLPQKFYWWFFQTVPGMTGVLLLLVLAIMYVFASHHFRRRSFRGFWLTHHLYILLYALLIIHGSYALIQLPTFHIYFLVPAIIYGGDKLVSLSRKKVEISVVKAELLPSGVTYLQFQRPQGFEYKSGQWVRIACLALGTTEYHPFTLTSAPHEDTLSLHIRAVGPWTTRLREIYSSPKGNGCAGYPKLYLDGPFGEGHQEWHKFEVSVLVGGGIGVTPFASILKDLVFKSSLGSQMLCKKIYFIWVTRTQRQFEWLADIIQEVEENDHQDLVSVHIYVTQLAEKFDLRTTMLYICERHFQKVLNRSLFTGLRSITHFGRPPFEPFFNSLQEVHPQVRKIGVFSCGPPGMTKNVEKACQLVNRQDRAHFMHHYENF
DUOX2/A2, sequence (Q1HG44 whole entry partner): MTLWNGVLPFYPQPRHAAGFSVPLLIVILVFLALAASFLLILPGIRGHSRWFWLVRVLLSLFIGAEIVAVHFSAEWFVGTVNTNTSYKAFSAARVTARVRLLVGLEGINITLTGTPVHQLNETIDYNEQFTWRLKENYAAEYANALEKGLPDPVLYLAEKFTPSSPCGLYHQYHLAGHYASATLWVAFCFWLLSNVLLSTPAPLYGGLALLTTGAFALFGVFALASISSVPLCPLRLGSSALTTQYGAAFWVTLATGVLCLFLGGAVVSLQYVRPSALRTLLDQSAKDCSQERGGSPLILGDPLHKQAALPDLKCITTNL

[Cl-].c1csc([I+]c2cccs2)c1 [Compound 1, di-2-thienyliodonium chloride, reference compound]
IC50 [1, 11]: 3780 ± 2140 nM
IC50 [2, 12]: 32300 ± 13800 nM
IC50 clonogenic survival, 2 hrs drug exposure (result in words) ([3]; 2 hrs exposure): No Inhibition
IC50 [3, 13]: 113000 ± 92300 nM
IC50 [4, 14]: 3410 ± 1600 nM
IC50 [5, 15]: 1500 ± 1110 nM

O=[N+]([O-])c1ccc2c(c1)[I+]c1cc([N+](=O)[O-])ccc1-2.[Br-] [Compound 15, Dibenziodolium, 3,7-dinitro-, bromide]
IC50 [1, 11]: 208 ± 129 nM
IC50 toward NOX5 [1]: low nM
effect on cell cycle progression [6]: major block in cell cycle progression in S and G2 phases
G1 (%) ([6]; 250 nM): 23.9%
G2 (%) ([6]; 250 nM): 47.4%
S phase (%) ([6]; 250 nM): 28.7%
G1 (%) ([6]; 500 nM): 16.6%
G2 (%) ([6]; 500 nM): 25.2%
S phase (%) ([6]; 500 nM): 58.2%
potency for inhibition of DUOX2 compared with parent compound (DPI) [7]: at least a log more potent
IC50 [7, 16]: 225 ± 24 nM
IC50 [2, 12]: 139 ± 143 nM
IC50 toward NOX4 [2]: low nM
IC50 ([8]; Homo sapiens, HT-29, 48 h): 202 nM
cytotoxic or cytostatic character [3]: cytotoxic
exposure required to inhibit growth / cell reproduction [3]: only a short exposure at nM concentrations
IC50 [3, 17]: 180 ± 157 nM
IC50 [3, 13]: 116 ± 108 nM
IC50 [3, 18]: < 10 nM
IC50 [4, 14]: 357 ± 268 nM
IC50 toward NOX1 [4]: low nM
ROS production in HT-29 cells ([9]; treatment for 24 hr with 100 nM): significantly decreased
IC50 [5, 15]: 310 ± 53 nM
IC50 toward NOX2 [5]: low nM

Brc1ccc2c(c1)[I+]c1cc(Br)ccc1-2.[Br-] [Compound 16, Dibenziodolium, 3,7-dibromo-, bromide]
IC50 [1, 11]: 44 ± 21 nM
IC50 toward NOX5 [1]: low nM
G1 (%) ([6]; 250 nM): 64.5%
G2 (%) ([6]; 250 nM): 7.9%
S phase (%) ([6]; 250 nM): 28.1%
G1 (%) ([6]; 500 nM): 57.2%
G2 (%) ([6]; 500 nM): 6.5%
S phase (%) ([6]; 500 nM): 36.2%
IC50 [7, 16]: 4140 ± 1720 nM
IC50 [2, 12]: 161 ± 153 nM
IC50 toward NOX4 [2]: low nM
IC50 ([8]; Homo sapiens, HT-29, 48 h): 50 nM
exposure required to inhibit growth / cell reproduction [3]: intermediate
IC50 [3, 17]: 1200 ± 1100 nM
IC50 [3, 13]: 536 ± 635 nM
IC50 [3, 18]: < 10 nM
potency as inhibitor of NOX1 compared with DPI [4]: more potent
IC50 [4, 14]: 70 ± 57 nM
IC50 toward NOX1 [4]: low nM
ROS production in HT-29 cells ([9]; treatment for 24 hr with 10 nM): significantly decreased
IC50 [5, 15]: 127 ± 20 nM
IC50 toward NOX2 [5]: low nM

COC(=O)c1ccc2c(c1)[I+]c1ccccc1-2.Cc1ccc(S(=O)(=O)[O-])cc1 [Compound 21, Dibenz[b,d]iodolium, 3-(methoxycarbonyl)-, salt with 4-methyl-benzenesulfonic acid (1:1)]
IC50 [1, 11]: 55 ± 20 nM
IC50 toward NOX5 [1]: low nM
IC50 [7, 16]: 1990 ± 1690 nM
potency as inhibitor of NOX4 compared with DPI [2]: more potent
IC50 [2, 12]: 127 ± 110 nM
IC50 toward NOX4 [2]: low nM
IC50 ([8]; 48 hr drug exposure): 148 nM
IC50 ([3]; read-out: IC50 (±SE) clonogenic survival, 2 hrs drug exposure, 2 hrs exposure): ~7000 nM
IC50 ([3]; read-out: IC50 (±SE) clonogenic survival, 6 hrs drug exposure, 6 hrs exposure): 1300 ± 300 nM
IC50 [4, 14]: 249 ± 116 nM
IC50 toward NOX1 [4]: low nM
ROS production in HT-29 cells ([9]; treatment for 24 hr with 10 nM): significantly decreased
IC50 [5, 15]: 71 ± 15 nM
IC50 toward NOX2 [5]: low nM

CN(C)Cc1ccc2c(c1)[I+]c1cc(CN(C)C)ccc1-2.[I-] [Compound 24, Dibenziodolium, 3,7-bis[(dimethylamino)methyl]-, iodide]
IC50 [1, 11]: 2090 ± 903 nM
IC50 [2, 12]: 35400 ± 42700 nM
IC50 ([8]; Homo sapiens, HT-29, 48 h): 87 nM
IC50 [4, 14]: 2520 ± 2410 nM
inhibition of NOX1 expression [10]: no significant inhibition
inhibition of ROS production ([9]; HT-29 human colon cancer cells): no significant inhibition
IC50 [5, 15]: 4380 ± 999 nM

O=[N+]([O-])c1cccc2c1-c1c(cccc1[N+](=O)[O-])[I+]2.[Br-] [Compound 49, 1,9-dinitrodibenzo[b,d]iodolium bromide]
IC50 ([1]; IC50 ± SE, NOX5 UACC-257, 3-5 independent experiments): 229 ± 123 nM
IC50 toward NOX5 [1]: submicromolar
IC50 [7]: 773 ± 362 nM
inhibition of DUOX2, as worded in text [7]: submicromolar
potency for inhibition of DUOX2 compared with parent compound (DPI) [7]: at least a log more potent
IC50 ([2]; IC50 ± SE, NOX4 HEK293, 3-5 independent experiments): 5530 ± 2680 nM
IC50 toward NOX4 [2]: much higher
Growth inhibition of NOX1-containing colon cancer cells versus the other analogs ([8]; even at higher concentrations): much less
IC50 ([4]; IC50 ± SE, NOX1/A1/O1 HEK 293, 3-5 independent experiments): 1020 ± 361 nM
IC50 toward NOX1 [4]: much higher
IC50 ([5]; IC50 ± SE, NOX2 HL-60, 3-5 independent experiments): 1470 ± 308 nM
IC50 toward NOX2 [5]: much higher
